Assays:
[1] = tested on: adults with Pompe disease; experiment: Study ATB200-02: manual muscle test (MMT lower extremity, upper body, total); assay type: in vivo, human; details: for MMT total score (upper body) change from baseline, mean: Cohort 2 (non-ambulatory ERT-experienced)
Description: Results for lower extremity MMT are shown in Table 25 and FIGS. 48A and 48B.

[2] = in vivo
Method: The ongoing open-label extension (OLE) of PROPEL (NCT04138277; ATB200-07) evaluates long-term safety and efficacy of cipa/mig. Outcomes include 6 minute walk distance (6MWD), forced vital capacity (FVC), creatine kinase (CK) and hexose tetrasaccharide (Hex4) levels and safety. Data are reported as change from the PROPEL baseline to OLE week 52 (104 weeks after the PROPEL baseline).

[3] = tested on: adult subjects with Pompe disease; experiment: Pooled Studies ATB200-02/03/07: MMT lower extremity score by exposure interval
[4] = tested on: adult subjects with late-onset Pompe disease (LOPD); experiment: Study ATB200-03 (PROPEL): GSGC total score; assay type: in vivo, human; details: for CHG to Week 52 in GSGC total score, LS Mean: MMRM, actual time point of assessments, decrease indicates improvement; for GSGC total score CHG, LS means (SE): Week 52, ANCOVA
Method: The test for the primary endpoint was conducted first at the 1-sided 0.025 significance level, and if significant, the ordered key secondary endpoints were similarly tested at the same significance level. […] A nonparametric randomization based ANCOVA was specified as the first sensitivity analysis for 6MWD and FVC. […] For the purposes of data presentation in this document, 2-sided p-values are reported hereafter, except as otherwise noted.

Gaa KO mice = experiment: Single fiber analysis (LAMP1/LC3 co-immunofluorescence, white gastrocnemius); assay type: in vivo, mouse; details: single fibers
Description: FIG. 17 depicts co-immunofluorescent staining of LAMP1 (green) (see for example, “B”) and LC3 (red) (see, for example, “A”) in single fibers isolated from the white gastrocnemius of Gaa KO mice treated with a vehicle, alglucosidase alfa, or ATB200. “C” depicts clearance of autophagic debris and absence of enlarged lysosome. A minimum of 30 fibers were examined from each animal.
As a result, a significant portion of muscle fibers analyzed (36-60%) from ATB200-treated mice appeared normal or near-normal.

[5] = Ambulatory ERT-experienced, 12 months
[6] = Ambulatory ERT-experienced, 24 months
[7] = Ambulatory ERT-experienced, 36 months
[8] = Ambulatory ERT-experienced, 48 months
[9] = Ambulatory ERT-naïve, 12 months
[10] = Ambulatory ERT-naïve, 24 months
[11] = Ambulatory ERT-naïve, 36 months
[12] = Ambulatory ERT-naïve, 48 months
[13] = Cohort 1 + Cohort 3 + Cohort 4, Month 12
[14] = Cohort 1 + Cohort 3 + Cohort 4, Month 24
[15] = Cohort 1 + Cohort 3 + Cohort 4, Month 36
[16] = Cohort 1 + Cohort 3 + Cohort 4, Month 48
[17] = Non-ambulatory ERT-experienced, 12 months
[18] = Non-ambulatory ERT-experienced, 24 months
[19] = Non-ambulatory ERT-experienced, 36 months
[20] = Week 52-LOCF, ERT-experienced Population
[21] = Week 52-LOCF, ERT-naïve Subjects excluding Subject 4005-2511
[22] = Week 52-LOCF, ITT excluding Subject 4005-2511

ATB200/miglustat: two-component therapy: cipaglucosidase alfa (ATB200) administered in conjunction with miglustat (AT2221), a stabilizer of cipaglucosidase alfa
muscle strength by MMTs and QMTs ([1]; 48 months): stable or improved muscle strength in the lower and upper extremities and proximal muscle groups
Lower body MMT score, CFBL mean [1, 5]: 3.1
Total MMT score, CFBL mean [1, 5]: 4.3
Upper body MMT score, CFBL mean [1, 5]: 1.3
Lower body MMT score, CFBL mean [1, 6]: 2.1
Total MMT score, CFBL mean [1, 6]: 2.5
Upper body MMT score, CFBL mean [1, 6]: 0.5
Lower body MMT score, CFBL mean [1, 7]: 2.5
Total MMT score, CFBL mean [1, 7]: 3.6
Upper body MMT score, CFBL mean [1, 7]: 0.8
Lower body MMT score, CFBL mean [1, 8]: 3.5
Total MMT score, CFBL mean [1, 8]: 4.0
Upper body MMT score, CFBL mean [1, 8]: 0.5
Lower body MMT score, CFBL mean [1, 9]: 2.8
Total MMT score, CFBL mean [1, 9]: 2.4
Upper body MMT score, CFBL mean [1, 9]: 0.0
Lower body MMT score, CFBL mean [1, 10]: 3.0
Total MMT score, CFBL mean [1, 10]: 2.0
Upper body MMT score, CFBL mean [1, 10]: −1.5
Lower body MMT score, CFBL mean [1, 11]: (3.3
Total MMT score, CFBL mean [1, 11]: 3.5
Upper body MMT score, CFBL mean [1, 11]: 1.0
Lower body MMT score, CFBL mean [1, 12]: (1.0)
Total MMT score, CFBL mean [1, 12]: −1.3
Upper body MMT score, CFBL mean [1, 12]: −1.4
MMT (total score) CFB, mean ([1]; Cohort 1 + Cohort 3 + Cohort 4, 24-mo): 2.4
MMT (total score) CFB, mean ([1]; Cohort 1 + Cohort 3 + Cohort 4, 48-mo): 2.3
MMT lower extremity score change from baseline, mean [1, 13]: 3.0
MMT lower extremity score change from baseline, median [1, 13]: 3.0
MMT lower extremity score change from baseline, mean [1, 14]: 2.3
MMT lower extremity score change from baseline, median [1, 14]: 2.0
MMT lower extremity score change from baseline, mean [1, 15]: 2.7
MMT lower extremity score change from baseline, median [1, 15]: 2.0
MMT lower extremity score change from baseline, mean [1, 16]: 2.7
MMT lower extremity score change from baseline, median [1, 16]: 3.0
MMT (total score) CFB, mean ([1]; Cohort 1 + Cohort 4 (ERT-experienced), 24-mo): 2.5
MMT (total score) CFB, mean ([1]; Cohort 1 + Cohort 4 (ERT-experienced), 48-mo): 4.0
MMT lower extremity score change from baseline, mean ([1]; Cohort 1 + Cohort 4 (ERT-experienced), Month 12): 3.1 pts
MMT lower extremity score change from baseline, mean ([1]; Cohort 1 + Cohort 4 (ERT-experienced), Month 24): 2.1 pts
MMT lower extremity score change from baseline, mean ([1]; Cohort 1 + Cohort 4 (ERT-experienced), Month 36): 2.5 pts
MMT lower extremity score change from baseline, mean ([1]; Cohort 1 + Cohort 4 (ERT-experienced), Month 48): 3.5 pts
MMT lower extremity score change from baseline, median ([1]; Cohort 1 + Cohort 4, Month 12): 2.0
MMT lower extremity score change from baseline, median ([1]; Cohort 1 + Cohort 4, Month 24): 2.0
MMT lower extremity score change from baseline, median ([1]; Cohort 1 + Cohort 4, Month 36): 1.5
MMT lower extremity score change from baseline, median ([1]; Cohort 1 + Cohort 4, Month 48): 3.0
MMT total score (upper body) change from baseline, mean ([1]; month 12): +1.3 pts
MMT total score (upper body) change from baseline, mean ([1]; month 24): +2.0 pts
MMT total score (upper body) change from baseline, mean ([1]; month 36): −0.8 pts
MMT (total score) CFB, mean ([1]; Cohort 3 (ERT-naïve), 24-mo): 2.0
MMT (total score) CFB, mean ([1]; Cohort 3 (ERT-naïve), 48-mo): −1.3
MMT lower extremity score change from baseline, mean ([1]; Cohort 3 (ERT-naïve), Month 12): 2.8 pts
MMT lower extremity score change from baseline, mean ([1]; Cohort 3 (ERT-naïve), Month 24): 3.0 pts
MMT lower extremity score change from baseline, mean ([1]; Cohort 3 (ERT-naïve), Month 36): 3.3 pts
MMT lower extremity score change from baseline, mean ([1]; Cohort 3 (ERT-naïve), Month 48): 1.0 pts
MMT lower extremity score change from baseline, median ([1]; Cohort 3, Month 12): 4.0
MMT lower extremity score change from baseline, median ([1]; Cohort 3, Month 24): 3.0
MMT lower extremity score change from baseline, median ([1]; Cohort 3, Month 36): 3.5
MMT lower extremity score change from baseline, median ([1]; Cohort 3, Month 48): 2.0
patients whose MMT lower extremity score improved numerically from baseline (n/N) ([1]; ERT-experienced ambulatory, 12 months): 14/15
patients whose MMT lower extremity score improved numerically from baseline (n/N) ([1]; ERT-experienced ambulatory, 24 months): 11/13
patients whose MMT lower extremity score improved numerically from baseline (n/N) ([1]; ERT-experienced ambulatory, 36 months): 10/10
patients whose MMT lower extremity score improved numerically from baseline (n/N) ([1]; ERT-experienced ambulatory, 48 months): 8/8
patients whose MMT lower extremity score improved numerically from baseline (n/N) ([1]; ERT-naïve, 12 months): 4/5
patients whose MMT lower extremity score improved numerically from baseline (n/N) ([1]; ERT-naïve, 24 months): 4/5
patients whose MMT lower extremity score improved numerically from baseline (n/N) ([1]; ERT-naïve, 36 months): 4/4
patients whose MMT lower extremity score improved numerically from baseline (n/N) ([1]; ERT-naïve, 48 months): 3/4
Total MMT score, CFBL mean [1, 17]: 1.3
Upper body MMT score, CFBL mean [1, 17]: 1.3
Total MMT score, CFBL mean [1, 18]: 2.0
Upper body MMT score, CFBL mean [1, 18]: 2.0
Total MMT score, CFBL mean [1, 19]: −0.8
Upper body MMT score, CFBL mean [1, 19]: −0.8
patients who discontinued the OLE due to infusion-associated reactions [2]: Three
safety and tolerability up to 104 weeks [2]: No new safety signals were identified
mean (SD) change from baseline in MMT lower extremity score ([3]; exposure >15 to ≤24 months (n=101)): 1.73 (3.675)
mean (SD) change from baseline in MMT lower extremity score ([3]; exposure >24 months (n=65)): 1.98 (4.527)
mean (SD) change from baseline in MMT lower extremity score ([3]; exposure ≤15 months (n=135)): 1.36 (3.807)

alglucosidase alfa [reference compound]
GSGC Total Score Absolute Value, Median ([4]; Baseline, ITT, ERT-naïve Subjects excluding Subject 4005-2511): 9.00
GSGC Total Score Absolute Value, Mean ([4]; Baseline, ITT, ERT-naïve Subjects excluding Subject 4005-2511, 4 points (normal) to 27 points (worst)): 10.86
mean (SD) change in GSGC total score from baseline to Week 52 ([4]; ERT-experienced Population): 0.6 (1.83)
mean (SD) change in GSGC total score from baseline to Week 52 ([4]; ERT-naïve excluding Subject 4005-2511): 1.3 (1.80)
Change in GSGC total score baseline to Week 52, LS means (SE) from ANCOVA ([4]; ITT-LOCF, ERT-naïve Subjects excluding Subject 4005-2511): 0.91 (1.042)
CHG to Week 52 in GSGC total score, LS Mean ([4]; ITT-OBS excluding Subject 4005-2511 (overall)): 0.8
CHG to Week 52 in GSGC total score, LS Mean ([4]; ITT-OBS excluding Subject 4005-2511, ERT-naïve Subjects): 1.3
CHG to Week 52 in GSGC total score, LS Mean ([4]; ITT-OBS, ERT-experienced Subjects): 0.5
GSGC Total Score Absolute Value, Mean [4, 20]: 15.87
GSGC Total Score Absolute Value, Median [4, 20]: 17.00
GSGC Total Score CHG, Mean [4, 20]: 0.61
GSGC total score CHG, Median [4, 20]: 0.00
GSGC Total Score Absolute Value, Mean [4, 21]: 12.14
GSGC Total Score Absolute Value, Median [4, 21]: 10.00
GSGC Total Score CHG (change from baseline), Mean [4, 21]: 1.29
GSGC Total Score CHG (change from baseline), Median [4, 21]: 1.00
GSGC Total Score Absolute Value, Median [4, 22]: 16.00
GSGC total score Absolute Value, Mean (SD) [4, 22]: 15.00 (4.488)
GSGC total score CHG, Mean (SD) [4, 22]: 0.77 (1.813)
GSGC total score CHG, Median [4, 22]: 0.50
GSGC total score CHG, LS means (SE) ([4]; ITT-LOCF excluding Subject 4005-2511): 0.847 (0.440)
GSGC total score CHG, LS means (SE) ([4]; ITT-LOCF, ERT-experienced Population): 0.65 (0.494)
GSGC outcome ([4]; overall (and ERT-experienced) population, week 52): worsening
mean (SD) change in GSGC total score from baseline to Week 52 ([4]; overall population, negative = improvement, listed as alglucosidase alfa and placebo): 0.77 (1.8)
mean (SD) change in GSGC total score from baseline to Week 52 ([4]; overall population, negative = improvement, listed as alglucosidase alfa/placebo): 0.77 (1.81)
Fibers with Autophagy Buildup (Gaa KO mice): >90%
Fibers with Normal or Near-normal Appearance (Gaa KO mice): <10%
